Tests used:
[1] = target: T1, Mdm2/p53 binding (GST-Mdm2 / His-p53) (Homo sapiens, UniProt Q00987, L33E); experiment: Mdm2/p53 binding assay (HTRF, His-p53 and GST-Mdm2); settings: His-p53 (aa 1-132) and GST-Mdm2 (aa 25-108, L33E) 6.25 nM each; 25°C, 1 hour; values given as ranges
T1 construct: Mdm2 partial protein having Mdm2 amino acids at positions 25 to 108
Procedure, shortened: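 Binding was detected by HTRF (ex 320 nm, em 620/665 nm) after 1 h at 25 °C, using Eu-cryptate anti-GST and XL665 anti-His antibodies. The protein pair was GST-Mdm2 (residues 25–108, L33E) with His-p53 (residues 1–132), each 6.25 nM in the protein dilution. T/C used no-compound control and no-p53 background, and IC50 came from sigmoid fitting.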

[2] = test system: human lung cancer-derived cell line NCI-H460 having wild-type p53; experiment: Cell growth inhibition assay (MTT); assay type: cell-based; settings: 72 h, NCI-H460 cells, 3 days culture, values given as ranges, read-out: 50% growth inhibition concentration (GI50 value)
Protocol: A cell growth inhibition assay was conducted using a human lung cancer-derived cell line NCI-H460 having wild-type p53.
NCI-H460 cells were suspended in a medium (RPMI1640 medium containing 10% fetal bovine serum) and the suspension was added in an amount of 500 cells/150 μl/well to a 96-well plate. A test compound was dissolved in DMSO and this solution was diluted with medium to prepare a sample solution (DMSO concentration: 1% or lower). On the next day, medium nonsupplemented with the test compound, or the sample solution, was added in an amount of 50 μl/well. Cells were then cultured at 37° ° C. for 3 days in a 5% CO2 atmosphere.
An MTT assay was conducted immediately after the nonsupplemented medium or the sample solution was added. Another MTT assay was conducted after culturing the cells for 3 days. The MIT assays were conducted as shown below.
A 5 mg/ml MTT (3-(4,5-dimethylthiazol-2-yl)-2,5-diphenyltetrazolium bromide, Sigma-Aldrich Co., M-2128) solution was prepared using a phosphate buffer solution (Dulbecco's Phosphate-buffered Saline). This MIT solution was added in an amount of 20 μl/well. Then the plate was cultured at 37° ° C. for 4 hours in a 5% CO2 atmosphere. The plate was centrifuged at 1200 rpm for 5 minutes and then the culture supernatant was removed by aspiration using a dispenser. DMSO was added in an amount of 150 μl/well to dissolve generated formazan. The plate was stirred using a plate mixer for uniform color development from each well. The absorbance of each well was measured at OD 540 nm and at a reference OD (660 nm) using a plate reader (SpectraMax PLUS384, Molecular Devices, CA, USA).
The OD value measured on the day of adding the sample solution was defined as S. The OD value measured three days after addition of the sample solution was defined as T. The OD value measured three days after addition of the DMSO dilution was defined as C. T/C (%) was determined at each concentration according to the formula shown below in order to prepare a dose response curve, from which 50% growth inhibition concentration (GI50 value) was calculated.

T1 sequence (Q00987 25-108 L33E): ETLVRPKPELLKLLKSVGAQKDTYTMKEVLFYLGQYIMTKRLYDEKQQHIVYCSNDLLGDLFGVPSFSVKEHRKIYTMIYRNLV

Row | IC50 [1] [µM] | GI50 [2] [µM] | Structure (SMILES)
1 | 0.05 to 0.1 | 0.1 to 0.5 | CC1(C)CCC2(CC1)N[C@@H](C(=O)N[C@H]1CC[C@H](O)CC1)[C@H](c1cccc(Cl)c1F)[C@]21C(=O)Nc2cc(Cl)ccc21 (relative stereo) [Example 1, (3′R, 4′S,5′R)-6″-chloro-4′-(3-chloro-2-fluorophenyl)-N-(trans-4-hydroxycyclohexyl)-4,4-dimethyl-2″-oxo-1″,2″-dihydrodispiro[cyclohexane-1,2′-pyrrolidine-3′,3″-indole]-5′-carboxamide]
2 | 0.05 to 0.1 | 1 to 5 | CC1(C)CCC2(CC1)N[C@@H](C(=O)N[C@H]1CC[C@H](CO)CC1)[C@H](c1cccc(Cl)c1F)[C@]21C(=O)Nc2nc(Cl)ccc21 (relative stereo) [Example 2, (3′R, 4′S,5′R)-6″-chloro-4′-(3-chloro-2-fluorophenyl)-N-[trans-4-(hydroxymethyl)cyclohexyl]-4,4-dimethyl-2″-oxo-1″,2″-dihydrodispiro[cyclohexane-1,2′-pyrrolidine-3′,3″-pyrrolo[2,3-b]pyridine]-5′-carboxamide]
3 | 0.1 to 0.5 | 1 to 5 | O=C(N[C@H]1CC[C@H](O)CC1)[C@@H]1NC2(CCCCC2)[C@@]2(C(=O)Nc3cc(Cl)ccc32)[C@H]1c1cccc(Cl)c1F (relative stereo) [Example 4, (3′R, 4′S,5′R)-6″-chloro-4′-(3-chloro-2-fluorophenyl)-N-(trans-4-hydroxycyclohexyl)-2″-oxo-1″,2″-dihydrodispiro[cyclohexane-1,2′-pyrrolidine-3′,3″-indole]-5′-carboxamide]
4 | 0.05 to 0.1 | 1 to 5 | CC1(C)CCC2(CC1)N[C@@H](C(=O)N[C@H]1CC[C@H](c3nnco3)CC1)[C@H](c1cccc(Cl)c1F)[C@]21C(=O)Nc2nc(Cl)ccc21 (relative stereo) [Example 5, (3′R, 4′S,5′R)-6″-chloro-4′-(3-chloro-2-fluorophenyl)-4,4-dimethyl-N-[trans-4-(1,3,4-oxadiazol-2-yl)cyclohexyl]-2″-oxo-1″,2″-dihydrodispiro[cyclohexane-1,2′-pyrrolidine-3′,3″-pyrrolo[2,3-b]pyridine]-5′-carboxamide]
5 | 0.001 to 0.05 | 1 to 5 | CC1(C)CCC2(CC1)N[C@@H](C(=O)N[C@H]1CC[C@H](O)CC1)[C@H](c1cccc(Cl)c1F)[C@]21C(=O)Nc2nc(Cl)ccc21 (relative stereo) [Example 6, (3′R, 4′S,5′R)-6″-chloro-4′-(3-chloro-2-fluorophenyl)-N-(trans-4-hydroxycyclohexyl)-4,4-dimethyl-2″-oxo-1″,2″-dihydrodispiro[cyclohexane-1,2′-pyrrolidine-3′,3″-pyrrolo[2,3-b]pyridine]-5′-carboxamide]
6 | 0.001 to 0.05 | 0.1 to 0.5 | CC1(C)CCC2(CC1)N[C@@H](C(=O)N[C@H]1CC[C@H](O)CC1)[C@H](c1ccnc(Cl)c1F)[C@]21C(=O)Nc2cc(Cl)ccc21 (relative stereo) [Example 16, (3′R, 4′S,5′R)-6″-chloro-4′-(2-chloro-3-fluoropyridin-4-yl)-N-(trans-4-hydroxycyclohexyl)-4,4-dimethyl-2″-oxo-1″,2″-dihydrodispiro[cyclohexane-1,2′-pyrrolidine-3′,3″-indole]-5′-carboxamide]
7 | 0.05 to 0.1 | 0.1 to 0.5 | CC1(C)CCC2(CC1)N[C@@H](C(=O)N[C@H]1CC[C@H](c3nnco3)CC1)[C@H](c1ccnc(Cl)c1F)[C@]21C(=O)Nc2cc(Cl)ccc21 (relative stereo) [Example 18, (3′R, 4′S,5′R)-6″-chloro-4′-(2-chloro-3-fluoropyridin-4-yl)-4,4-dimethyl-N-[trans-4-(1,3,4-oxadiazol-2-yl)cyclohexyl]-2″-oxo-1″,2″-dihydrodispiro[cyclohexane-1,2′-pyrrolidine-3′,3″-indole]-5′-carboxamide]
8 | 0.05 to 0.1 | 0.1 to 0.5 | CC1(C)CCC2(CC1)N[C@@H](C(=O)N[C@H]1CC[C@H](NC(=O)CO)CC1)[C@H](c1cccc(Cl)c1F)[C@]21C(=O)Nc2cc(Cl)ccc21 (relative stereo) [Example 24, (3′R, 4′S,5′R)-6″-chloro-4′-(3-chloro-2-fluorophenyl)-N-{trans-4-[(hydroxyacetyl)amino]cyclohexyl}-4,4-dimethyl-2″-oxo-1″,2″-dihydrodispiro[cyclohexane-1,2′-pyrrolidine-3′,3″-indole]-5′-carboxamide]
9 | 0.05 to 0.1 | 0.5 to 1 | CC1(C)CCC2(CC1)N[C@@H](C(=O)N[C@H]1CC[C@H](c3nnco3)CC1)[C@H](c1ccnc(Cl)c1F)[C@]21C(=O)Nc2nc(Cl)ccc21 (relative stereo) [Example 26, (3′R, 4′S,5′R)-6″-chloro-4′-(2-chloro-3-fluoropyridin-4-yl)-4,4-dimethyl-N-[trans-4-(1,3,4-oxadiazol-2-yl)cyclohexyl]-2″-oxo-1″,2″-dihydrodispiro[cyclohexane-1,2′-pyrrolidine-3′,3″-pyrrolo[2,3-b]pyridine]-5′-carboxamide]
10 | 0.05 to 0.1 | 0.1 to 0.5 | CC1(C)CCC2(CC1)N[C@@H](C(=O)N[C@H]1CC[C@H](c3nnc[nH]3)CC1)[C@H](c1ccnc(Cl)c1F)[C@]21C(=O)Nc2cc(Cl)ccc21 (relative stereo) [Example 32, (3′R, 4′S,5′R)-6″-chloro-4′-(2-chloro-3-fluoropyridin-4-yl)-4,4-dimethyl-2″-oxo-N-[trans-4-(4H-1,2,4-triazol-3-yl)cyclohexyl]-1″,2″-dihydrodispiro[cyclohexane-1,2′-pyrrolidine-3′,3″-indole]-5′-carboxamide]
11 | 0.001 to 0.05 | 0.1 to 0.5 | CC(O)[C@@H]1CC[C@@H](NC(=O)[C@@H]2NC3(CCC(C)(C)CC3)[C@@]3(C(=O)Nc4cc(Cl)ccc43)C2c2ccnc(Cl)c2)CO1 (single isomer, unassigned) [Example 77]
12 | 0.05 to 0.1 | 0.1 to 0.5 | CC(O)[C@@H]1CC[C@@H](NC(=O)[C@@H]2NC3(CCC(C)(C)CC3)[C@@]3(C(=O)Nc4cc(Cl)ccc43)[C@H]2c2ccnc(Cl)c2F)CO1 (single isomer, unassigned) [Example 93]
13 | 0.001 to 0.05 | 0.5 to 1 | CC1(C)CCC2(CC1)N[C@@H](C(=O)N[C@@H]1CC[C@@H](CO)OC1)[C@H](c1cccc(Cl)c1F)[C@]21C(=O)Nc2nc(Cl)ccc21 [Example 3, (3′R, 4′S,5′R)-6″-chloro-4′-(3-chloro-2-fluorophenyl)-N-[(3R,6S)-6-(hydroxymethyl)tetrahydro-2H-pyran-3-yl]-4,4-dimethyl-2″-oxo-1″,2″-dihydrodispiro[cyclohexane-1,2′-pyrrolidine-3′,3″-pyrrolo[2,3-b]pyridine]-5′-carboxamide]
14 | 0.001 to 0.05 | 0.1 to 0.5 | CC1(C)CCC2(CC1)N[C@@H](C(=O)N[C@@H]1CC[C@@H](CO)OC1)[C@H](c1cccc(Cl)c1F)[C@]21C(=O)Nc2cc(Cl)ccc21 [Example 8, (3′R, 4′S,5′R)-6″-chloro-4′-(3-chloro-2-fluorophenyl)-N-[(3R,6S)-6-(hydroxymethyl)tetrahydro-2H-pyran-3-yl]-4,4-dimethyl-2″-oxo-1″,2″-dihydrodispiro[cyclohexane-1,2′-pyrrolidine-3′,3″-indole]-5′-carboxamide]
15 | 0.001 to 0.05 | 0.5 to 1 | CC1(C)CCC2(CC1)N[C@@H](C(=O)N[C@@H]1CC[C@@H](C(C)(C)O)OC1)[C@H](c1cccc(Cl)c1F)[C@]21C(=O)Nc2nc(Cl)ccc21 [Example 11, (3′R, 4′S,5′R)-6″-chloro-4′-(3-chloro-2-fluorophenyl)-N-[(3R,6S)-6-(1-hydroxy-1-methylethyl)tetrahydro-2H-pyran-3-yl]-4,4-dimethyl-2″-oxo-1″,2″-dihydrodispiro[cyclohexane-1,2′-pyrrolidine-3′,3″-pyrrolo[2,3-b]pyridine]-5′-carboxamide]
16 | – | < 0.1 | CC1(C)CCC2(CC1)N[C@@H](C(=O)N[C@@H]1CC[C@@H](C(N)=O)OC1)[C@H](c1ccnc(Cl)c1F)[C@]21C(=O)Nc2cc(Cl)ccc21 [Example 70, (3′R, 4′S,5′R)—N-[(3R,6S)-6-carbamoyltetrahydro-2H-pyran-3-yl]-6″-chloro-4′-(2-chloro-3-fluoropyridin-4-yl)-4,4-dimethyl-2″-oxo-1″,2″-dihydrodispiro[cyclohexane-1,2′-pyrrolidine-3′,3″-indole]-5′-carboxamide]

Source: patent US12545685B2 (Daiichi Sankyo Company, Limited, priority 2011, dated 2026)
